Measured values reported in patent US8906829B2, “Synergistic algicidal compositions including hydrazone derivatives and copper” (Dow AgroSciences LLC, priority 2010, dated 2014).

How the values were obtained:
C. reinhardtii CC-1928 = experiment: Effect of copper on activity of hydrazones: in vitro growth inhibition of C. reinhardtii in TAP Cu minus / TAP Cu plus medium (Example 10); type: cell-based, Chlamydomonas reinhardtii; settings: test compound 1 μg/mL, 48 h; for inhibition of growth at 1 µg/mL: Chlamydomonas reinhardtii, TAP Cu minus medium, read-out: % Inhn. Minus Copper Observed; for % Inhn. Plus Copper Observed: TAP Cu plus medium (CuCl2)
Procedure: In vitro toxicity assays against C. reinhardtii CC-1928 (wild type mt+137c green in dark subclone) obtained from the Chlamydomonas Resource Center at Duke University were conducted using TAP liquid growth medium described by Gorman and Levine Proc. Natl. Acad. Sci. USA 1965, 54, 1665-1669 except that CuSO4.5H2O, normally included as a component of Hutner's trace element stock solution (Hutner et al. Proc. Am. Philos. Soc. 1950, 94, 152-170), was omitted. The TAP medium lacking Cu (TAP Cu minus) was prepared by adding 400 mg NH4Cl, 10 mL of 100× Tris-Acetate (242 g Tris-base and 100 mL glacial acetic acid in 1000 mL milli Q water), and 8.3 mL of 120.5× phosphate buffer (14.34 g K2HPO4 and 7.26 g KH2PO4 in 1000 mL milli Q water) to milli Q water to make a total volume of 1 liter. The medium was treated with 0.5 g Chelex 100 resin (Bio-Rad Analytical grade, 50-100 mesh, sodium form, cat#142-2822) by stirring at room temperature for 1 hour. 900 mL were decanted and 45.9 mg of CaCl2.2H2O, 90 mg of MgSO4.7H2O and 0.9 mL Hutner's trace elements lacking CuSO4.5H2O were added and the solution was filter-sterilized. Medium containing copper (TAP Cu plus) was prepared by adding CuCl2.2H2O to the TAP Cu minus medium at 20 μM. Test compounds were dissolved in dimethylsulfoxide (DMSO) at 2 mg/mL then dilutions in TAP Cu minus and TAP Cu plus media were prepared in sterilized microcentrifuge tubes at 2 μg/mL. 100 μL aliquots of diluted compound were dispensed into flat-bottomed 96-well microtiter plates. C. reinhardtii was maintained under 12 h of light on TAP agar plates at 18° C. A loopful of cells was added to 50 mL of TAP Cu minus medium and the culture incubated with shaking at 200 rpm at 27° C. for 24 h. The culture (10 to 20 mL aliquot) was centrifuged in a bench centrifuge at 2000 rpm for 2 min. The resulting cell pellet was resuspended in 5 mL sterile milli Q water (which had been treated with Chelex 100 resin using 0.5 g resin per liter of water by stirring at room temperature for 1 h), and recentrifuged. The cells were resuspended in TAP Cu minus medium, and the suspension adjusted to 2×10^5 spores per mL. Microtiter plates containing compounds as described above were inoculated with 100 μL of this cell suspension and the plates incubated at 27° C. for 48 h before assessing algal growth by measuring light scattering in a NepheloStar plate-reader. Growth inhibition was determined by comparing growth in the presence of test compound with growth in control wells lacking test compound. Results for growth inhibition by test compounds at 1 μg/mL in TAP Cu plus medium (% Inhn Plus Copper Observed) were compared with predicted values (% Inhn Plus Copper Predicted) that were calculated using the formula set forth by S. R. Colby in Weeds 1967, 15, 20-22 based on results obtained for the same compounds in TAP Cu minus medium (% Inhn Minus Copper Observed). […] Results illustrate that hydrazones and copper produce a synergistic algicidal effect towards C. reinhardtii.

[1] = test system: Synechocystis sp. strain 6803; experiment: Effect of copper on activity of hydrazones: in vitro growth inhibition of Synechocystis in BG-11 Cu minus / Cu plus medium (Example 11); type: cell-based; settings: 72 h; for % Inhn. Plus Copper Observed: BG-11 Cu plus medium
Procedure: In vitro toxicity assays against the cyanobacterium (blue-green alga) Synechocystis sp. strain 6803 were conducted using BG-11 medium except that copper micronutrient, normally included as CuSO4.5H2O, was omitted. The medium, termed BG-11 Cu minus, was prepared by dissolving 1.5 g NaNO3, 40 mg K2HPO4, 6 mg citric acid, 1 mg Na2EDTA and 20 mg Na2CO3 in 1 liter of milli Q water and treating the solution with 0.5 g Chelex 100 resin (Bio-Rad Analytical grade, 50-100 mesh, sodium form, cat#142-2822) by stifling at room temperature for 1 h. 900 mL were decanted and 67.5 mg MgSO4.7H2O, 32.4 mg […], 5.4 mg ferric ammonium citrate and 0.9 mL trace metal mix A5 without copper (2.86 g H3BO3, 1.81 g MnCl2.4H2O, 222 mg ZnSO4.7H2O, 390 mg Na2MoO4.2H2O and Co(NO3)2.6H2O in 1 L Milli Q water) was added. The pH was adjusted to 7.1 and the medium was filter-sterilized. Medium containing copper (BG-11 Cu plus) was prepared by adding CuCl2.2H2O to the BG-11 Cu minus medium at 0.2 μM. Test compounds were dissolved in dimethylsulfoxide (DMSO) at 2 mg/mL then appropriate dilutions in BG-11 Cu minus and BG-11 Cu plus media were prepared in sterilized microcentrifuge tubes. 100 μL aliquots were dispensed into flat-bottomed 96-well microtiter plates. Synechocystis was maintained under 24 h of light on BG-11 agar plates at 27° C. A loopful of cells was added to 50 mL of BG-11 Cu minus growth medium and the culture was incubated with shaking at 200 rpm at 27° C. for 24 h. The culture (10 to 20 mL aliquot) was centrifuged in a bench centrifuge at 2400 rpm for 2 min. The resulting cell pellet was resuspended in 5 mL sterile milli Q water (which had been treated with Chelex 100 resin using 0.5 g resin per liter of water by stirring at room temperature for 1 h), and recentrifuged. The cells were resuspended in BG-11 Cu minus medium, and the suspension adjusted to 4×10^5 spores per mL. Microtiter plates containing compounds as described above were inoculated with 100 μL of this cell suspension and the plates incubated at 27° C. for 72 h before assessing algal growth by measuring light scattering in a NepheloStar plate reader. Growth inhibition was determined by comparing growth in the presence of test compound with growth in control wells lacking test compound. Results for growth inhibition by test compounds in BG-11 Cu plus medium (% Inhn Plus Copper Observed) were compared with predicted values (% Inhn Plus Copper Predicted) that were calculated using the formula set forth by S. R. Colby in Weeds 1967, 15, 20-22 based on-results obtained for the same compounds in BG-11 Cu minus medium (% Inhn Minus Copper Observed) and the inhibition attributed to copper chloride alone, as determined by comparing growth in copper-minus and copper-plus media without any test compound across experiments. Results illustrate that hydrazones and copper produce a synergistic algicidal effect towards Synechocystis.

[2] = Synechocystis, Test Concn. 0.0125 μg/mL, BG-11 Cu minus medium, read-out: % Inhn. Minus Copper Observed
[3] = Synechocystis, Test Concn. 0.05 μg/mL, BG-11 Cu minus medium, read-out: % Inhn. Minus Copper Observed

melting point	SMILES	inhibition of growth at 1 µg/mL (C. reinhardtii CC-1928)	% Inhn. Plus Copper Observed (C. reinhardtii CC-1928)	inhibition of growth at 0.00625 µg/mL ([1]; Synechocystis, Test Concn. 0.00625 μg/mL, BG-11 Cu minus medium, read-out: % Inhn. Minus Copper Observed)	% Inhn. Plus Copper Observed ([1]; Test Concn. 0.00625 μg/mL)	inhibition of growth at 0.0125 µg/mL [1, 2]	% Inhn. Plus Copper Observed ([1]; Test Concn. 0.0125 μg/mL)	inhibition of growth at 0.05 µg/mL [1, 3]	% Inhn. Plus Copper Observed ([1]; Test Concn. 0.05 μg/mL)
219 to 222 °C	O=C(N/N=C/c1ccc(Cl)c(Cl)c1O)c1cccc(Cl)c1 [Compound 40]	22%	96%	4%	64%	–	–	–	–
248 to 253 °C	Cc1ccc(C(=O)N/N=C/c2cccc(C(F)(F)F)c2O)c(O)c1 [Compound 37]	12%	97%	–	–	44%	88%	–	–
199 to 204 °C	C/C(=N\NC(=O)Cc1ccccc1)c1cc(Cl)cc(Cl)c1O [Compound 13]	17%	96%	–	–	–	–	22%	96%
271 to 278 °C	Cc1ccc(C(=O)N/N=C/c2ccc(Cl)c(Cl)c2O)c(O)c1 [Compound 41]	28%	96%	–	–	26%	93%	–	–
176 to 180 °C	O=C(N/N=C/c1cccc(C(F)(F)F)c1O)c1cccc(F)c1 [Compound 34]	8%	97%	–	–	–	–	34%	91%
264 to 267 °C	O=C(N/N=C/c1c(Cl)ccc(Cl)c1O)c1ccc(F)cc1 [Compound 43]	9%	93%	–	–	–	–	23%	95%
166 to 169 °C	Cc1cccc(C(=O)N/N=C/c2cccc(Cl)c2O)c1 [Compound 50]	6%	97%	–	–	–	–	-7%	95%
216 to 222 °C	O=C(N/N=C/c1cc(C(F)(F)F)cc(Cl)c1O)c1ccccc1 [Compound 24]	-2%	90%	–	–	–	–	45%	93%
210 to 212 °C	O=C(N/N=C/c1cc(C(F)(F)F)cc(Cl)c1O)c1cccc(F)c1 [Compound 28]	12%	97%	–	–	–	–	13%	96%
284 to 287 °C	O=C(N/N=C/c1cccc(Cl)c1O)c1ccc([N+](=O)[O-])cc1 [Compound 53]	8%	88%	–	–	–	–	45%	94%
215 to 218 °C	O=C(N/N=C/c1ccc(Cl)c(Cl)c1O)c1cccc(F)c1 [Compound 39]	8%	91%	–	–	–	–	31%	92%
165 to 169 °C	O=C(N/N=C/c1cc(Cl)cc(Cl)c1O)c1cccc(C(F)(F)F)c1 [Compound 22]	-14%	96%	–	–	–	–	48%	94%
188 to 190 °C	Cc1cccc(C(=O)N/N=C/c2cccc(C(F)(F)F)c2O)c1 [Compound 33]	21%	97%	–	–	–	–	29%	97%
258 to 260 °C	O=C(N/N=C/c1cc(C(F)(F)F)cc(Cl)c1O)c1ccccc1O [Compound 30]	29%	92%	–	–	–	–	0%	92%
185 to 187 °C	C/C(=N\NC(=O)c1ccccc1)c1ccccc1O [Compound 2]	10%	95%	–	–	–	–	-8%	97%
228 to 229 °C	O=C(N/N=C/c1cc(Cl)cc(C(F)(F)F)c1O)c1cccc(Cl)c1 [Compound 47]	-5%	77%	–	–	24%	60%	–	–
195 to 200 °C	C/C(=N\NC(=O)c1ccc(C)cc1)c1cccc(Cl)c1O [Compound 59]	-6%	92%	–	–	–	–	1%	93%
215 to 217 °C	O=C(N/N=C/c1cc(Cl)cc(Cl)c1O)c1ccc2ccccc2c1 [Compound 10]	24%	93%	–	–	–	–	44%	95%
258 to 266 °C	Cc1ccc(C(=O)N/N=C/c2cccc(Cl)c2O)c(O)c1 [Compound 55]	-3%	97%	–	–	–	–	68%	92%
278 to 280 °C	O=C(N/N=C/c1c(C(F)(F)F)ccc(Cl)c1O)c1ccccc1O [Compound 57]	-11%	95%	–	–	–	–	61%	92%
